Values quoted from earlier work in patent US20040089561A1, “Method and package for storing a pressurized container containing a drug” (priority 1999, published 2004).

details: water in the propellant

Row | SMILES | maximum water solubility
1 | FC(F)(Cl)Cl [CFC 12] | about 130 ppm
2 | FC(F)(Cl)C(F)(F)Cl [CFC 114] | about 130 ppm
3 | FCC(F)(F)F [HFC 134a] | about 2200 ppm
